Converted amounts (≈) assume the structure as drawn. Read-outs that look alike come from different tables or passages of the source.
Key:
[1] = molecular target: T1, Kir2.1 Human Potassium Ion Channel (Homo sapiens, UniProt P63252); experiment: Kir2.1 QPatch CiPA assay; assay type: cell-based; conditions: mean, duplicate
T1 construct: expressed in transfected cells
T1 sequence (P63252 1-427): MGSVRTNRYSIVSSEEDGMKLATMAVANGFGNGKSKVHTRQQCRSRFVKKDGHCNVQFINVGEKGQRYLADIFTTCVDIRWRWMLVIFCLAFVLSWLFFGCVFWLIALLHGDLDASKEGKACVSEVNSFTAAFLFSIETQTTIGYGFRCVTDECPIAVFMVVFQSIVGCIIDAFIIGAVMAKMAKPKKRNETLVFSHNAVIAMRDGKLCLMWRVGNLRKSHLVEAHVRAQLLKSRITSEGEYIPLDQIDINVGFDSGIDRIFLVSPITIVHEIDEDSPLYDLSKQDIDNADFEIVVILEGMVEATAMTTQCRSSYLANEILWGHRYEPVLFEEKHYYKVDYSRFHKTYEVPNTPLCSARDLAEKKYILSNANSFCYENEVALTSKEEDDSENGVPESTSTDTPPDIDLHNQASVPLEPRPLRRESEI
Excerpt: (§1) Early drug discovery programs commonly assess hERG inhibition as the only indicator of potential cardiovascular safety concerns. Researchers have recently recommended a more rigorous evaluation of multiple cardiac ion channels to provide a more comprehensive cardiovascular risk assessment (Fermini, B., et al., A New Perspective in the Field of Cardiac Safety Testing through the Comprehensive In Vitro Proarrhythmia Assay Paradigm. J. Biomolec. Screening 2016, 21, 1-11). Given the promising initial results for 6, further evaluation was undertaken (in duplicate) in a Comprehensive in vitro Proarrhythmia Assay (CiPA) eight assay panel run on the QPatch HT (Sophion, Denmark) automated patch clamp system at three concentrations (3, 30, and 100 μM). All data were filtered for seal quality, seal drop, and current amplitude. A stock solution of the test compound at 30 mM concentration was prepared in DMSO.
(§2) The parameters measured were the maximum inward current evoked on stepping to −120 mV from the test pulse. The peak current amplitude was calculated before and after compound addition and the amount of block was assessed by dividing the Test compound current amplitude by the Control current amplitude. Control is the mean hKir2.1 current amplitude collected 15 seconds at the end of the control; Test Compound is the mean hKir2.1 current amplitude peak and end collected in the presence of test compound at each concentration. The positive control was barium chloride.

[2] = test system: S. aureus strain isolated from a cystic fibrosis patient; experiment: MIC, CLSI broth microdilution, CF isolate; assay type: cell-based; conditions: Staphylococcus aureus; CLSI broth microdilution; read-out: MIC CF isolate
[3] = test system: Enterobacter cloacae LSI-2943; experiment: MIC panel (Laboratory Specialists, Inc.), E. cloacae; assay type: cell-based; conditions: LSI2943, Cmpd. 6, CLSI broth microdilution
hERG = hERG (Homo sapiens, UniProt Q12809); experiment: hERG IC50, IonWorks Barracuda (Charles River); conditions: 6 versus 24
Chain of hERG (Q12809 whole entry): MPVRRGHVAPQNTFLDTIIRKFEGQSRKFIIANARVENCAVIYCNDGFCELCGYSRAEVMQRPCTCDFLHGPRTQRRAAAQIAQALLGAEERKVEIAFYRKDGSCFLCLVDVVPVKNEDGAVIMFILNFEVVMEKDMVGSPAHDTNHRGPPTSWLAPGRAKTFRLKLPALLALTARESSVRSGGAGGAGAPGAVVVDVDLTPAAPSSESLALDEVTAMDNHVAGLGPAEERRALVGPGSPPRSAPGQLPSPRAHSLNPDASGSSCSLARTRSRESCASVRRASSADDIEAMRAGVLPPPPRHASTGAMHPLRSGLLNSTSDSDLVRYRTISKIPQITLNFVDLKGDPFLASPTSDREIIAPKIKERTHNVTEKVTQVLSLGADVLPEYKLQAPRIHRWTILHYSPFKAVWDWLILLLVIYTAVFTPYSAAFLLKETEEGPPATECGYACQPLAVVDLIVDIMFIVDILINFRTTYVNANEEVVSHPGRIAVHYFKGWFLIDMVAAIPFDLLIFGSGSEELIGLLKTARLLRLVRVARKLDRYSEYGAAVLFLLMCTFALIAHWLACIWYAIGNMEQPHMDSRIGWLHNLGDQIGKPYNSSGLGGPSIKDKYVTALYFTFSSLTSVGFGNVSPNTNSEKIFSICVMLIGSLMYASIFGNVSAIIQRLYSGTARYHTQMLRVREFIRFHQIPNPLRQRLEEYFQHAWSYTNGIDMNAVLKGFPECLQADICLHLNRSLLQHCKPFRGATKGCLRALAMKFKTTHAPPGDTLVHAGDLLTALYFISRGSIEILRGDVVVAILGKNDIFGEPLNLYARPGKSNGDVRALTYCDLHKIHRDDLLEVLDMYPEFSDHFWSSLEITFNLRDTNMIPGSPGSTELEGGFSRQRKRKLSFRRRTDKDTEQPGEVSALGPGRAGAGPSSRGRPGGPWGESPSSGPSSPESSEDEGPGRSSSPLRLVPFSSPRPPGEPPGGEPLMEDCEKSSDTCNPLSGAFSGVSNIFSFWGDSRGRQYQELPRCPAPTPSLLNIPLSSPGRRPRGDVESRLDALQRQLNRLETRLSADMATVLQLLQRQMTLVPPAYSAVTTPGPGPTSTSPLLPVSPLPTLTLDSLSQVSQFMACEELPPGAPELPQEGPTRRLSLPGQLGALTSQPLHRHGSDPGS
Excerpt: The design of these isomannide-detived NBTIs focused on enhanced polarity and modulation of basicity through the two electronegative oxygen atoms in the linker.

S. aureus ATCC 29213 = experiment: MIC panel (Laboratory Specialists, Inc.), S. aureus ATCC 29213; assay type: cell-based; conditions: Staphylococcus aureus, ATCC29213, read-out: MIC S. aureus ATCC 29213 (n = 3); Cmpd. 6; CLSI broth microdilution; very small pinpoint growth up to 4 μg/mL
MRSADRL-3161 = experiment: MIC panel (Laboratory Specialists, Inc.), MRSA; assay type: cell-based; conditions: Staphylococcus aureus; Cmpd. 6; CLSI broth microdilution
[4] = test system: Klebsiella pneumoniae LSI-2999; experiment: MIC panel (Laboratory Specialists, Inc.), K. pneumoniae; assay type: cell-based; conditions: LSI2999, Cmpd. 6, CLSI broth microdilution
hKv4.3/KChIP2 = molecular target: T2, hKv4.3/KChIP2 (Homo sapiens, UniProt Q9UK17); experiment: Kv4.3/KChIP2 QPatch CiPA assay; assay type: cell-based; conditions: mean, duplicate
T2 construct: expressed in transfected cells
T2 sequence (Q9UK17 1-655): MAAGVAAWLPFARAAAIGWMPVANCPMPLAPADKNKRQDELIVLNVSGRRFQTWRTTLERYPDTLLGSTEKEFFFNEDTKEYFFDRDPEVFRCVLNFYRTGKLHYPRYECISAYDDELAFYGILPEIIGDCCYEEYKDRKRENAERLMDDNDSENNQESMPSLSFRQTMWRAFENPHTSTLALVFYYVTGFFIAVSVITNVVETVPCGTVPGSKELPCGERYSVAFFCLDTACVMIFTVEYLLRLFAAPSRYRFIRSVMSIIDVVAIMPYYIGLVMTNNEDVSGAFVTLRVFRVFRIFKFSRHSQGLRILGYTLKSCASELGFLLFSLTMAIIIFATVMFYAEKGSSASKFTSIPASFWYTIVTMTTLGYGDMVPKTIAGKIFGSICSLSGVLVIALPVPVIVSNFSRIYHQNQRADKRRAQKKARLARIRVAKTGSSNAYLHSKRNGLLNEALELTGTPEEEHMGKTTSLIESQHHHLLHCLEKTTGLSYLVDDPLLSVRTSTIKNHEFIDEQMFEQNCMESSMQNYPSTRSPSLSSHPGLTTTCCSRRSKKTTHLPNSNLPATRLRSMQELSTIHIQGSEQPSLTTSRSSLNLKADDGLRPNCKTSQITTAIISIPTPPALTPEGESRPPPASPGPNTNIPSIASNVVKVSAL
T2 sequence (Q9NS61 1-270 partner): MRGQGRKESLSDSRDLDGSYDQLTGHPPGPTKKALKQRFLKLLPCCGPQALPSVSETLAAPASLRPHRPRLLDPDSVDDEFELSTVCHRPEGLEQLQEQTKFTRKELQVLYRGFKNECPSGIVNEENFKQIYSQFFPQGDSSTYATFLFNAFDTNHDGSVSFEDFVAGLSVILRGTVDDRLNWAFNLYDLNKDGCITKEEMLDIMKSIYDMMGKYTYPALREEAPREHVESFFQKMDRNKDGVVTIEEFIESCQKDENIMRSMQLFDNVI
Excerpt: as §1
as §2, with “outward” for “inward”, “40” for “−120”, “hKv4.3/KChIP2” for “hKir2.1”, “flecainide.” for “barium chloride.”

[5] = read-out: % Inhibition Kir2.1 (end current)
[6] = read-out: % Inhibition Kir2.1 (peak current)
[7] = read-out: % Inhibition Kv4.3 (end current)
[8] = read-out: % Inhibition Kv4.3 (peak current)

Work on `COc1ccc2ncc(F)c(CC[C@@]3(O)CO[C@@H]4[C@@H](NCc5cc6c(cn5)OCCO6)CO[C@@H]43)c2n1` [Compound 6, (3R, 3aS,6S,6aR)-6-(((2,3-dihydro-[1,4]dioxino[2,36-c]pyridin-7-yl)methyl)amnino)-3-(2-(3-fluoro-6-methoxy-1,5-naphthyridin-4-yl)ethyl)hexahydrofuro[3,2-b]furan-3-ol] yielded an inhibition at 3 µM [1, 5] of 8.3%, an inhibition at 3 µM [1, 6] of 6.9% and an inhibition at 30 µM [1, 5] of 19.6%. It also gave an inhibition at 30 µM [1, 6] of 18%, an inhibition at 100 µM [1, 5] of 31.9% and an inhibition at 100 µM [1, 6] of 29.7%. The MIC [2] was 2 µg/mL (≈ 4.01 µM), the MIC [3] was 16 µg/mL (≈ 32.1 µM) and the “hERG IC50 higher than benzodioxine 24” value (hERG) was “ca. 3 fold”. It also gave an MIC (S. aureus ATCC 29213) of 0.25 µg/mL (≈ 0.501 µM), an MIC (MRSADRL-3161) of 1 µg/mL (≈ 2.01 µM) and an MIC [4] of 128 µg/mL (≈ 257 µM). The inhibition at 3 µM (hKv4.3/KChIP2; [7]) was -4.4%, the inhibition at 3 µM (hKv4.3/KChIP2; [8]) was 11% and the inhibition at 30 µM (hKv4.3/KChIP2; [7]) was -19.6%. The inhibition at 30 µM (hKv4.3/KChIP2; [8]) was 25.1%, the inhibition at 100 µM (hKv4.3/KChIP2; [7]) was 7.1% and the inhibition at 100 µM (hKv4.3/KChIP2; [8]) was 43.6%.
